# Species on record: Rattus norvegicus
# Assay: DrugMatrix - Regimen: Daily Repeat
# Assay type: toxicity, organism-based, Sprague-Dawley
# Set-up: regimen Daily Repeat, gender Male, age 6-8 weeks
# Details: in vivo, po, route oral GAVAGE, vehicle .5 % CMC; for ABSOLUTE BASOPHIL / ABSOLUTE EOSINOPHIL / ABSOLUTE LYMPHOCYTE / ABSOLUTE MONOCYTE / ABSOLUTE SEGMENTED NEUTROPHIL / BASOPHIL / EOSINOPHIL / ERYTHROCYTE COUNT / HEMATOCRIT / HEMOGLOBIN / LEUKOCYTE COUNT / LYMPHOCYTE / MEAN CORPUSCULAR HEMOGLOBIN / MEAN CORPUSCULAR HEMOGLOBIN CONCENTRATION / MEAN CORPUSCULAR VOLUME / MONOCYTE / NEUTROPHIL / NUCLEATED RED BLOOD CELLS / PLATELET COUNT: tissue Blood; for ALANINE AMINOTRANSFERASE / ALBUMIN / ALKALINE PHOSPHATASE / ASPARTATE AMINOTRANSFERASE / BLOOD UREA NITROGEN / CARBON DIOXIDE / CHLORIDE / CHOLESTEROL / CREATINE PHOSPHOKINASE / CREATININE / GLUCOSE / LACTATE DEHYDROGENASE / LIPASE / PHOSPHORUS / POTASSIUM / SODIUM / TOTAL BILIRUBIN / TOTAL PROTEIN / URIC ACID: tissue Plasma
# [1] = 29 mg/kg, 120 h, dose level Low, time 5 day
# [2] = 400 mg/kg, 72 h, dose level High, time 3 day
# [3] = 400 mg/kg, 120 h, dose level High, time 5 day
smiles,measurement,setting,value
NC(=O)NC(=O)Cc1ccccc1 [PHENACEMIDE],ABSOLUTE BASOPHIL,[1],0 CELLS/uL
same,ABSOLUTE EOSINOPHIL,[1],29.33 CELLS/uL
same,ABSOLUTE LYMPHOCYTE,[1],6627.33 CELLS/uL
same,ABSOLUTE MONOCYTE,[1],106 CELLS/uL
same,ABSOLUTE SEGMENTED NEUTROPHIL,[1],904 CELLS/uL
same,BASOPHIL,[1],0%
same,EOSINOPHIL,[1],0.33%
same,ERYTHROCYTE COUNT,[1],5.3 x10E6/uL
same,HEMATOCRIT,[1],32%
same,HEMOGLOBIN,[1],12.6 G/DL
same,LEUKOCYTE COUNT,[1],7.67 x10E3/uL
same,LYMPHOCYTE,[1],86%
same,MEAN CORPUSCULAR HEMOGLOBIN,[1],23.8 pg
same,MEAN CORPUSCULAR HEMOGLOBIN CONCENTRATION,[1],39.37 G/DL
same,MEAN CORPUSCULAR VOLUME,[1],60.37 fL
same,MONOCYTE,[1],1.33%
same,NEUTROPHIL,[1],12.33%
same,NUCLEATED RED BLOOD CELLS,[1],0 /100WBC
same,PLATELET COUNT,[1],1108.33 x10E3/uL
same,ALANINE AMINOTRANSFERASE,[1],42.67 u/L
same,ALBUMIN,[1],4.13 G/DL
same,ALKALINE PHOSPHATASE,[1],433.33 u/L
same,ASPARTATE AMINOTRANSFERASE,[1],75.33 u/L
same,BLOOD UREA NITROGEN,[1],15.33 mg/dL
same,CARBON DIOXIDE,[1],25.67 mmol/L
same,CHLORIDE,[1],102.33 MEQ/L
same,CHOLESTEROL,[1],82.67 mg/dL
same,CREATINE PHOSPHOKINASE,[1],189.67 u/L
same,CREATININE,[1],0.28 mg/dL
same,GLUCOSE,[1],176.33 mg/dL
same,LACTATE DEHYDROGENASE,[1],163.33 u/L
same,LIPASE,[1],10 u/L
same,PHOSPHORUS,[1],11.93 mg/dL
same,POTASSIUM,[1],5.88 MEQ/L
same,SODIUM,[1],145.3 MEQ/L
same,TOTAL BILIRUBIN,[1],0.1 mg/dL
same,TOTAL PROTEIN,[1],6.07 G/DL
same,URIC ACID,[1],1.5 mg/dL
same,ABSOLUTE BASOPHIL,[2],0 CELLS/uL
same,ABSOLUTE EOSINOPHIL,[2],62.33 CELLS/uL
same,ABSOLUTE LYMPHOCYTE,[2],7750.67 CELLS/uL
same,ABSOLUTE MONOCYTE,[2],54.67 CELLS/uL
same,ABSOLUTE SEGMENTED NEUTROPHIL,[2],1099 CELLS/uL
same,BASOPHIL,[2],0%
same,EOSINOPHIL,[2],0.67%
same,ERYTHROCYTE COUNT,[2],5.14 x10E6/uL
same,HEMATOCRIT,[2],31.23%
same,HEMOGLOBIN,[2],11.97 G/DL
same,LEUKOCYTE COUNT,[2],8.97 x10E3/uL
same,LYMPHOCYTE,[2],86.67%
same,MEAN CORPUSCULAR HEMOGLOBIN,[2],23.33 pg
same,MEAN CORPUSCULAR HEMOGLOBIN CONCENTRATION,[2],38.33 G/DL
same,MEAN CORPUSCULAR VOLUME,[2],60.87 fL
same,MONOCYTE,[2],0.67%
same,NEUTROPHIL,[2],12%
same,NUCLEATED RED BLOOD CELLS,[2],0.67 /100WBC
same,PLATELET COUNT,[2],1052.67 x10E3/uL
same,ALANINE AMINOTRANSFERASE,[2],54 u/L
same,ALBUMIN,[2],4.33 G/DL
same,ALKALINE PHOSPHATASE,[2],480.33 u/L
same,ASPARTATE AMINOTRANSFERASE,[2],86 u/L
same,BLOOD UREA NITROGEN,[2],17 mg/dL
same,CARBON DIOXIDE,[2],30 mmol/L
same,CHLORIDE,[2],104 MEQ/L
same,CHOLESTEROL,[2],77.67 mg/dL
same,CREATINE PHOSPHOKINASE,[2],137.33 u/L
same,CREATININE,[2],0.47 mg/dL
same,GLUCOSE,[2],160.67 mg/dL
same,LACTATE DEHYDROGENASE,[2],98.33 u/L
same,LIPASE,[2],11 u/L
same,PHOSPHORUS,[2],13.1 mg/dL
same,POTASSIUM,[2],5.91 MEQ/L
same,SODIUM,[2],148.57 MEQ/L
same,TOTAL BILIRUBIN,[2],0.13 mg/dL
same,TOTAL PROTEIN,[2],6 G/DL
same,URIC ACID,[2],1.17 mg/dL
same,ABSOLUTE BASOPHIL,[3],0 CELLS/uL
same,ABSOLUTE EOSINOPHIL,[3],0 CELLS/uL
same,ABSOLUTE LYMPHOCYTE,[3],9516.67 CELLS/uL
same,ABSOLUTE MONOCYTE,[3],47 CELLS/uL
same,ABSOLUTE SEGMENTED NEUTROPHIL,[3],1103 CELLS/uL
same,BASOPHIL,[3],0%
same,EOSINOPHIL,[3],0%
same,ERYTHROCYTE COUNT,[3],5.74 x10E6/uL
same,HEMATOCRIT,[3],34.53%
same,HEMOGLOBIN,[3],13.23 G/DL
same,LEUKOCYTE COUNT,[3],10.67 x10E3/uL
same,LYMPHOCYTE,[3],88.67%
same,MEAN CORPUSCULAR HEMOGLOBIN,[3],23.07 pg
same,MEAN CORPUSCULAR HEMOGLOBIN CONCENTRATION,[3],38.33 G/DL
same,MEAN CORPUSCULAR VOLUME,[3],60.23 fL
same,MONOCYTE,[3],0.33%
same,NEUTROPHIL,[3],11%
same,NUCLEATED RED BLOOD CELLS,[3],0 /100WBC
same,PLATELET COUNT,[3],1161.33 x10E3/uL
same,ALANINE AMINOTRANSFERASE,[3],47 u/L
same,ALBUMIN,[3],4.43 G/DL
same,ALKALINE PHOSPHATASE,[3],491.67 u/L
same,ASPARTATE AMINOTRANSFERASE,[3],84.33 u/L
same,BLOOD UREA NITROGEN,[3],22 mg/dL
same,CARBON DIOXIDE,[3],24.67 mmol/L
same,CHLORIDE,[3],105 MEQ/L
same,CHOLESTEROL,[3],64 mg/dL
same,CREATINE PHOSPHOKINASE,[3],157 u/L
same,CREATININE,[3],0.73 mg/dL
same,GLUCOSE,[3],176.33 mg/dL
same,LACTATE DEHYDROGENASE,[3],96.33 u/L
same,LIPASE,[3],8.67 u/L
same,PHOSPHORUS,[3],12.63 mg/dL
same,POTASSIUM,[3],6.59 MEQ/L
same,SODIUM,[3],146.77 MEQ/L
same,TOTAL BILIRUBIN,[3],0.1 mg/dL
same,TOTAL PROTEIN,[3],5.97 G/DL
same,URIC ACID,[3],1.8 mg/dL

# From ChEMBL document CHEMBL3885881, “DrugMatrix”
